From US20260091026A1, “METHODS OF TREATING INFLAMMATORY DISEASES” (INTERLINE THERAPEUTICS, INC., priority 2023, published 2026)

Tests used:
RIPK2 (KD)/XIAP (BIR2) = molecular target: T1, RIPK2 (KD)/XIAP (BIR2) (Homo sapiens, UniProt O43353); assay: RIPK2-XIAP binding competition PPI assay (TR-FRET); conditions: for Emax: 50 nM of GSK583 = -100% activity, read-out: PPI Amax; for IC50: GST-RIPK2 / His-XIAP (BIR2)-avi, 120 min at 23° C.
T1 construct: made in house; host or cells: baculovirus-infected Sf9 cells
Excerpt: The ability of selected compounds of Formula (I) to inhibit the binding of an His-XIAP (BIR2)-avi fusion protein to a GST-RIPK2 fusion protein was quantified employing the TR-FRET-based competition assay as described in the following paragraphs.
Recombinant fusion protein of N-terminal Glutathione-S-Transferase (GST) and a fragment of human RIPK2 (amino acids 1-310 of accession number 043353), expressed in baculovirus infected Sf9 cells, purified via glutathione affinity chromatography, was used as GST-RIPK2 fusion protein. Recombinant fusion protein of N-terminal 6xHistidine (His), a fragment of human XIAP (amino acids 152-231 of accession number P98170), and C-terminal avi tag, expressed in baculovirus infected Sf9 cells, purified via Nickel NTA affinity chromatography, was used as the His-XIAP (BIR2)-avi fusion protein.
For the assay, a working solution of 1 nM GST-RIPK2, 25 nM His-XIAP (BIR2)-avi, 6 nM Anti-His-XL665 […] (Revvity Catalogue No. 61HISXLB), and 0.5 nM Anti-GST-Tb(Revvity Catalogue No. 61GSTTLB) in 25 mM Tris-HCl 7.5, 0.5 mM ethylene glycol-bis(2-aminoethylether)-N,N,N′,N′-tetraacetic acid (EGTA), 10 mM magnesium chloride (MgCl2), 2.5 mM dithiothreitol (DTT), 0.01% (w/v) bovine serum albumin (BSA), 0.005% (w/v) Pluronic F-127 (Sigma), 0.5 mM sodium ortho-vanadate, 5 mM-Glycerophosphate disodium salt hydrate (BGP) was prepared. 50 nL of a 100-fold concentrated solution of each test compound in DMSO was dispensed via acoustic dispensing into a white low volume 384-well microtiter plate (Perkin Elmer Catalogue No. 6008280). Subsequently, 5 μL of the assay working solution were added.
The resulting mixture was incubated 120 min at 23° C. Subsequently, the amount of complex formed by the GST-RIPK2, XIAP (BIR2)-avi, Anti-His-XL665, and Anti-GST-Tb was evaluated by measurement of the resonance energy transfer from the Tb-cryptate to the XL665. Therefore, the fluorescence emissions at 520 nm and 665 nm after excitation at 337 nm were measured in a TR-FRET reader, e.g. a Pherastar FS(BMG Labtechnologies, Offenburg, Germany) or an Envision (PerkinElmer). The ratio of the emissions at 665 nm and at 520 nm was taken as the measure of the amount of the complex. The data were normalized (assay reaction without inhibitor=0% activity, 50 nM of GSK583=−100% activity).

[1] = test system: THP1-Dual cells, NF-κB pathway (SEAP); assay: THP-1 Dual cell SEAP assay (L18-MDP stimulated); assay type: cell-based; conditions: Homo sapiens, 10 ng/mL L18-MDP, 20-24 h, SEAP readout, read-out: IFNγ THP1 IC50
Protocol: THP1-Dual™ cells (InvivoGen Cat #thpd-nfis) allow simultaneous assessment of the NF-κB pathway, by monitoring the activity of secreted embryonic alkaline phosphatase (SEAP) as well as the IRF pathway, by assessing the activity of a secreted luciferase (Lucia). Cells were cultured according to manufacturers' recommendations. For the assay, cell concentration was adjusted to 7.14×10^5 cells/mL in assay media (RPMI 1640, 2 mM L-Glutamine, 25 mM HEPES, 10% fetal bovine serum (heat-inactivated for 30 min at 56° C.), Pen-Strep (100 U/mL)) and 35 μL of cell suspension (˜25,000 cells) per well were added to a flat bottom 384-well plate (white opaque). Plate was centrifuged at 300 g for 2 min, compounds were added in serial dilution series according to the plate layout (volumes ˜500 nL-0.0152 nL) and plate was incubated at 37° C. in 5% CO2 for 30 min. Using assay media, a L18-MDP stock solution, that results in a final concentration of 10 ng/mL L18-MDP in each well when adding 15 μL to each well, was prepared. 15 μL of L18-MDP stock solution was added to each well, while 15 μL of assay media was added to the negative control wells. Plates were subsequently incubated at 37° C. in 5% CO2 overnight (20-24 h).
For the SEAP assay: without disturbing the cells at the bottom of the well, 15 μL supernatant was transferred to a clear 384-well flat bottom plate and 35 μL QUANTI-Blue Solution per well was added. Following a 2 h incubation at 37° C., the optical density (OD) was measured at 620-655 nm using a microplate reader (PheraStar FS microplate reader with protocol for OD 620-655 nm).
Values of media-only wells were subtracted and % inhibition for each compound concentration relative to the DMSO/L18-MDP-treated controls was calculated. Inhibition values+/−SD were fitted by non-linear regression using Prism software (GraphPad PRISM Software) to calculate IC50 values.

T1 sequence (O43353 1-310): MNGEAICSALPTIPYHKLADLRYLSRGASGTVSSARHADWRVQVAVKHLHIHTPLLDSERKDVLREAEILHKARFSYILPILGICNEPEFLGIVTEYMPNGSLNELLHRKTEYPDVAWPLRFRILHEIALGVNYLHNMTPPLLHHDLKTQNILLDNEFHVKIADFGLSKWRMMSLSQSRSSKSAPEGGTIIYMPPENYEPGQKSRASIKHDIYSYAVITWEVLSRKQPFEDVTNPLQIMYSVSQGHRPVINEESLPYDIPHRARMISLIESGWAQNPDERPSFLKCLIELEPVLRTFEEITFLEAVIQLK

SMILES | Emax (RIPK2 (KD)/XIAP (BIR2)) [%] | IC50 (RIPK2 (KD)/XIAP (BIR2)) [nM] | IC50 [1] [nM]
COc1cc2ncc(-c3cc(C(=O)N[C@H](C)c4ncccn4)n(C4CC4)n3)n2cc1S(=O)(=O)C(C)(C)C [Example 100, (R)-3-(6-(tert-butylsulfonyl)-7-methoxyimidazo[1,2-a]pyridin-3-yl)-1-cyclopropyl-N-(1-(pyrimidin-2-yl)ethyl)-1H-pyrazole-5-carboxamide] | ≥ 80 | < 10 | < 100
COc1cc2ncc(-c3cc(C(=O)NCc4cccc(F)n4)n(C)n3)n2cc1S(=O)(=O)C(C)(C)C [Example 52, 3-(6-(tert-butylsulfonyl)-7-methoxyimidazo[1,2-a]pyridin-3-yl)-N-((6-fluoropyridin-2-yl)methyl)-1-methyl-1H-pyrazole-5-carboxamide] | ≥ 80 | 100 to 1000 | > 2500
CCn1nc(-c2cnc3cc(OC)c(S(=O)(=O)C(C)(C)C)cn23)cc1C(=O)NCc1ncccn1 [Example 80, 3-(6-(tert-butylsulfonyl)-7-methoxyimidazo[1,2-a]pyridin-3-yl)-1-ethyl-N-(pyrimidin-2-ylmethyl)-1H-pyrazole-5-carboxamide] | ≥ 80 | 10 to 100 | 100 to 500
COc1cc2ncc(-c3cc(C(=O)N[C@H](C)c4cn(C)cn4)n(C)n3)n2cc1S(=O)(=O)C(C)(C)C [Example 56, (R)-3-(6-(tert-butylsulfonyl)-7-methoxyimidazo[1,2-a]pyridin-3-yl)-1-methyl-N-(1-(1-methyl-1H-imidazol-4-yl)ethyl)-1H-pyrazole-5-carboxamide] | ≥ 80 | 100 to 1000 | > 2500
COc1cc2ncc(-c3cc(C(=O)N[C@H](C)C4CC4)n(C)n3)n2cc1S(=O)(=O)C(C)(C)C [Example 35, (R)-3-(6-(tert-butylsulfonyl)-7-methoxyimidazo[1,2-a]pyridin-3-yl)-N-(1-cyclopropylethyl)-1-methyl-1H-pyrazole-5-carboxamide] | 30 to 55 | > 1000 | > 2500
COc1cc2ncc(-c3cc(C(=O)N[C@H](C)c4ncccc4F)n(CCCO)n3)n2cc1S(=O)(=O)C(C)(C)C [Example 145, (R)-3-(6-(tert-butylsulfonyl)-7-methoxyimidazo[1,2-a]pyridin-3-yl)-N-(1-(3-fluoropyridin-2-yl)ethyl)-1-(3-hydroxypropyl)-1H-pyrazole-5-carboxamide] | ≥ 80 | 10 to 100 | < 100
COc1cc2ncc(-c3cc(C(=O)N[C@H](C)c4ncc(F)cn4)n(C)n3)n2cc1S(=O)(=O)C(C)(C)C [Example 104, (R)-3-(6-(tert-butylsulfonyl)-7-methoxyimidazo[1,2-a]pyridin-3-yl)-N-(1-(5-fluoropyrimidin-2-yl)ethyl)-1-methyl-1H-pyrazole-5-carboxamide] | ≥ 80 | > 1000 | > 2500
C[C@H](NC(=O)c1cc(-c2cnc3cc(OCCO)c(S(=O)(=O)C(C)(C)C)cn23)nn1C)c1ncccc1Cl [Example 112, (S)-3-(6-(tert-butylsulfonyl)-7-(2-hydroxyethoxy)imidazo[1,2-a]pyridin-3-yl)-N-(1-(3-chloropyridin-2-yl)ethyl)-1-methyl-1H-pyrazole-5-carboxamide] | 55 to 80 | > 1000 | > 2500
CCn1nc(-c2cnc3cc(OCCO)c(S(=O)(=O)C(C)(C)C)cn23)cc1C(=O)NCc1ccsn1 [Example 128, 3-(6-(tert-butylsulfonyl)-7-(2-hydroxyethoxy)imidazo[1,2-a]pyridin-3-yl)-1-ethyl-N-(isothiazol-3-ylmethyl)-1H-pyrazole-5-carboxamide] | ≥ 80 | < 10 | < 100
COc1cc2ncc(-c3cc(C(=O)NCC4CCCCC4)n(C)n3)n2cc1S(=O)(=O)C(C)(C)C [Example 41, 3-(6-(tert-butylsulfonyl)-7-methoxyimidazo[1,2-a]pyridin-3-yl)-N-(cyclohexylmethyl)-1-methyl-1H-pyrazole-5-carboxamide] | ≥ 80 | 100 to 1000 | > 2500
